Laboratory results taken from article PMC10703812, “Understanding the molecular mechanisms of odorant binding and activation of the human OR52 family” (Nature Communications, 2023).
“And” between values parts separate entries of the source, which are not always exact repeats. Identical values can stand only once.

Experiments:
Type in all cases: cell-based, human
OR52cs H183A = experiment: cAMP signaling assay, mutant; conditions: for cAMP response: Fig.3d source data, single experiments
Experimental: (§1) For cAMP assay, CRE luciferase assay, and surface ELISA, the full-length OR52cs construct was cloned into the pcDNA3.1 vector. The Lucy signal sequence and FLAG peptide sequence were added to the N-terminus. Mutant constructs were generated by site-directed mutagenesis. For BRET assay, eYFP was added at the C-terminus of OR52cs with a GGGGS linker. Rluc was added to Gα for resonance partner (after L99 for Gαs, and I100 for Gαolf, respectively, with GGGGS linker back and forth).
(§2) Hana3A cells were seeded on 96-well white microplates and transfected with OR52cs or the corresponding mutants and cAMP sensor (Promega). The medium was exchanged with CO2-independent medium (Gibco) supplemented with 0.375 mg ml^−1 D-luciferin (Nanolight) 48 h after infection, and cells were incubated in the dark at 20 °C for 2 h. Basal luminescence was detected using a Tristar 2 LB 942 multimode reader (Berthold) until it reached a plateau. Subsequently, various concentrations of odorants and forskolin (Sigma-Aldrich) were added to each well, and luminescence was measured again. Data were analyzed and plotted using GraphPad Prism 9.4.1.

OR52cs Y282A = experiment: cAMP signaling assay, mutant; conditions: odorant 0.001 M; Fig.S13b source data, single experiments
Experimental: as §1, §2

OR52cs V158F = experiment: cAMP signaling assay, mutant; conditions: for cAMP response: Fig.S8b source data, single experiments
Experimental: as §1, §2

[1] = system: OR52cs F14A / F96A / F170A; experiment: cAMP signaling assay, mutant
Experimental: as §1, §2

OR52cs H107A = experiment: cAMP signaling assay, mutant
Experimental: as §1, §2

OR52cs R265A [2] = experiment: cAMP signaling assay, mutant
Experimental: as §1, §2

OR52cs V158F/V209M = experiment: cAMP signaling assay, mutant; conditions: for cAMP response: Fig.S8b source data, single experiments
Experimental: as §1, §2

OR52cs G201V = experiment: cAMP signaling assay, mutant; conditions: Fig. 3d
Experimental: as §1, §2

OR52cs Y254A = experiment: cAMP signaling assay, mutant; set-up: cAMP response: scale not given here; conditions: for cAMP response: Fig.S13b source data, single experiments
Experimental: as §1, §2

OR52cs S114A = experiment: cAMP signaling assay, mutant; set-up: cAMP response: scale not given here; conditions: for cAMP response: Fig.S13b source data, single experiments
Experimental: as §1, §2

OR52cs F261A = experiment: cAMP signaling assay, mutant; set-up: cAMP response: scale not given here; conditions: for cAMP response: Fig.3d source data, single experiments
Experimental: as §1, §2

OR52cs F253A = experiment: cAMP signaling assay, mutant; set-up: cAMP response: scale not given here; conditions: for cAMP response: Fig.S13b source data, single experiments
Experimental: as §1, §2

OR52cs H275A = experiment: cAMP signaling assay, mutant; set-up: cAMP response: scale not given here; conditions: for cAMP response: Fig.S13b source data, single experiments
Experimental: as §1, §2

OR52cs H264A = experiment: cAMP signaling assay, mutant; set-up: cAMP response: scale not given here; conditions: for cAMP response: Fig.S13b source data, single experiments
Experimental: as §1, §2

OR52cs D212A = experiment: cAMP signaling assay, mutant; set-up: scale not given here; conditions: Fig.S13b source data, single experiments
Experimental: as §1, §2

OR52cs R265A [3] = experiment: CRE luciferase assay in Hana3A cells, mutant; conditions: 100 µM carboxylic acid; Fig.S7a, single experiments
Experimental: as §1
48 h after infection, cells were treated with odorants and incubated at 37 °C for 4 h. […] All values were divided by the Renilla luciferase activity to normalize the effect of cell confluence. All data were analyzed using GraphPad Prism 9.4.1.

CCCCCCCC(=O)O [Octanoate, octanoic acid]
EC50 (OR52cs H183A; Supplementary Table 3, N=3): 41.4 µM
pEC50 ± SEM (OR52cs H183A; Supplementary Table 3, N=3): 4.154 ± 0.087
cAMP response (OR52cs H183A; odorant 0.0001 M): 48.2985 and 50.8568 and 78.4687
cAMP response (OR52cs H183A; odorant 0.001 M): 61.0348 and 75.0061 and 91.5473
cAMP response (OR52cs Y282A): 0.7944 and 0.7429 and 0.9514
downstream signal / selectivity (in words) (OR52cs V158F; Supplementary Fig. 8): greatly reduced the downstream signal
cAMP response (OR52cs V158F; odorant 9.18274e-8 M): -0.2745% and -0.4519% and -0.2741%
cAMP response (OR52cs V158F; odorant 9.18274e-7 M): -1.206% and -1.168% and -3.0916%
cAMP response (OR52cs V158F; odorant 9.18274e-6 M): 1.8013% and 0.5178% and -1.853%
cAMP response (OR52cs V158F; odorant 3.0303e-5 M): 11.8948% and 7.17% and 7.559%
cAMP response (OR52cs V158F; odorant 0.0001 M): 32.9355% and 23.3075% and 28.8455%
cAMP response (OR52cs V158F; odorant 0.001 M): 85.6572% and 61.8428% and 79.0275%
cAMP response (in words) ([1]; Fig. 2c): significantly reduced cAMP response
X-fold over OR52cs (relative fold of EC50) ([1]; Supplementary Table 3): 26.3
EC50 ([1]; Supplementary Table 3, N=3): 208 µM
downstream signaling (in words) (OR52cs H107A; Fig. 3d): significantly reduced downstream signaling
X-fold over OR52cs (relative fold of EC50) (OR52cs H107A; Supplementary Table 3): 23.7
EC50 (OR52cs H107A; Supplementary Table 3, N=3): 187 µM
cAMP response (OR52cs H107A; odorant 9.18274e-7 M, Fig.3d source data, single experiments): 2.018 and 1.83 and 1.279
downstream signaling (in words) (OR52cs R265A [2]; Fig. 3d): complete loss of downstream signaling
cAMP response (OR52cs R265A [2]; odorant 9.18274e-6 M, Fig.3d source data, single experiments): 1.026 and 1.808
response / preference (in words) (OR52cs V158F/V209M; Supplementary Fig. 8): preference for OCA was maintained
cAMP response (OR52cs V158F/V209M; odorant 9.18274e-8 M): 1.119% and 0.2182% and 0.3359% and 1.739%
cAMP response (OR52cs V158F/V209M; odorant 9.18274e-7 M): 6.95% and 4.269% and 3.744% and 7.839% and 6.948%
cAMP response (OR52cs V158F/V209M; odorant 9.18274e-6 M): 37.3813% and 30.814% and 31.4615% and 45.1116% and 40.3488%
cAMP response (OR52cs V158F/V209M; odorant 3.0303e-5 M): 96.8852% and 89.0601% and 97.4121% and 90.3953% and 94.2682%
cAMP response (OR52cs V158F/V209M; odorant 0.0001 M): 87.6893% and 101.186% and 102.533% and 86.5504% and 88.6049%
cAMP response (OR52cs V158F/V209M; odorant 0.001 M): 79.2271% and 94.3185% and 104.414% and 103.193% and 74.9407%
downstream signaling (in words) (OR52cs G201V): loss of OCA signaling
EC50 (OR52cs Y254A; Supplementary Fig. 13b): 0.6 µM
cAMP response (OR52cs Y254A; odorant 9.18274e-8 M): 3.215 and 2.4896 and 3.9476
cAMP response (OR52cs Y254A; odorant 9.18274e-7 M): 17.867 and 17.7491 and 20.6138
cAMP response (OR52cs Y254A; odorant 9.18274e-6 M): 27.7636 and 29.4886 and 28.529
cAMP response (OR52cs Y254A; odorant 3.0303e-5 M): 29.9943 and 28.2884 and 30.9686
cAMP response (OR52cs Y254A; odorant 0.0001 M): 31.1114 and 30.9026 and 31.9237
cAMP response (OR52cs Y254A; odorant 0.001 M): 30.3248 and 30.6953 and 33.5912
EC50 (OR52cs S114A; Supplementary Fig. 13b): 54 µM
cAMP response (OR52cs S114A; odorant 9.18274e-7 M): 0.7937 and 0.8194 and 1.08
cAMP response (OR52cs S114A; odorant 9.18274e-6 M): 9.728 and 8.57 and 11.8154
cAMP response (OR52cs S114A; odorant 3.0303e-5 M): 42.675 and 40.9596 and 54.3071
cAMP response (OR52cs S114A; odorant 0.0001 M): 71.9561 and 66.6762 and 91.932
cAMP response (OR52cs S114A; odorant 0.001 M): 103.979 and 112.532 and 126.832
downstream signaling (in words) (OR52cs F261A; Fig. 3d): significantly reduced downstream signaling
X-fold over OR52cs (relative fold of EC50) (OR52cs F261A; Supplementary Table 3): 64.0
EC50 (OR52cs F261A; Supplementary Table 3, N=3): 506 µM
pEC50 ± SEM (OR52cs F261A; Supplementary Table 3, N=3): 3.326 ± 1.547
cAMP response (OR52cs F261A; odorant 9.18274e-7 M): 3.451 and 3.066 and 1.971
cAMP response (OR52cs F261A; odorant 3.0303e-5 M): 5.756 and 6.219 and 11.0254
cAMP response (OR52cs F261A; odorant 0.001 M): 66.0962 and 58.1347 and 77.5545
EC50 (OR52cs F253A; Supplementary Fig. 13b): 219 µM
cAMP response (OR52cs F253A; odorant 9.18274e-8 M): 0.6755 and 1.259 and 1.115
cAMP response (OR52cs F253A; odorant 9.18274e-7 M): 1.327 and 1.6492 and 1.457
cAMP response (OR52cs F253A; odorant 9.18274e-6 M): 3.718 and 4.351 and 3.597
cAMP response (OR52cs F253A; odorant 3.0303e-5 M): 11.1366 and 13.9484 and 11.2845
cAMP response (OR52cs F253A; odorant 0.0001 M): 38.3735 and 42.0381 and 35.9654
cAMP response (OR52cs F253A; odorant 0.001 M): 106.487 and 105.397 and 81.8862
EC50 (OR52cs H275A; Supplementary Fig. 13b): 67 µM
cAMP response (OR52cs H275A; odorant 9.18274e-7 M): 1.163 and 1.2177 and 0.8093
cAMP response (OR52cs H275A; odorant 9.18274e-6 M): 12.1088 and 9.48 and 7.718
cAMP response (OR52cs H275A; odorant 3.0303e-5 M): 33.8567 and 32.1825 and 24.2227
cAMP response (OR52cs H275A; odorant 0.0001 M): 62.7151 and 60.5238 and 53.5809
cAMP response (OR52cs H275A; odorant 0.001 M): 101.549 and 94.9309 and 77.7131
EC50 (OR52cs H264A; Supplementary Fig. 13b): 60 µM
cAMP response (OR52cs H264A; odorant 9.18274e-6 M): 4.615 and 4.081 and 4.27
cAMP response (OR52cs H264A; odorant 3.0303e-5 M): 14.0038 and 11.3214 and 12.3984
cAMP response (OR52cs H264A; odorant 0.0001 M): 28.5965 and 25.2729 and 26.8638
cAMP response (OR52cs H264A; odorant 0.001 M): 40.8869 and 35.5267 and 36.771
cAMP response (OR52cs D212A; odorant 9.18274e-6 M): 0.5276 and 0.521 and 1.015
cAMP response (OR52cs D212A; odorant 3.0303e-5 M): 0.9753 and 0.9567 and 1.328
cAMP response (OR52cs D212A; odorant 0.0001 M): 4.038 and 3.668 and 3.274
cAMP response (OR52cs D212A; odorant 0.001 M): 42.8474 and 43.8072 and 40.1115
relative fold (luciferase activity over DMSO) (OR52cs R265A [3]): 1.143 fold and 0.8826 fold and 1.532 fold and 1.19 fold
